From article PMC9147060, “Elucidating Pathway and Anesthetic Mechanism of Action of Clove Oil Nanoformulations in Fish” (Pharmaceutics, 2022)

Molecular target: T1, GABAA receptor (γ-aminobutyric acid subtype A receptor)
T1 construct: gene Gabra1; native receptor mixture in cerebral cortical synaptosomal membranes of adult male rats
Test: [3H]muscimol binding to rat cortical membranes, filtration
Conditions: enhancement of 5 nM [3H]muscimol binding; 50 mM Tris-HCl pH 7.4, 0-4 °C, 1 h; in DMSO; positive modulation

EC50: 1.25 mM
Structure (SMILES): C=CCc1ccc(O)c(OC)c1 [eugenol]
